According to US7442680B2, “Inotropic and diuretic effects of GLP-1 and GLP-1 agonists” (Amylin Pharmaceuticals, Inc., priority 1998, dated 2008):
Where two headings read alike, the source gives them in different places. Where no end group is shown, it is not given here.

Assays:
[1] = tested on: Harlan Sprague Dawley rats; test: Diuretic effects of GLP-1 or exendin in anesthetized rats (urine flow, sodium excretion, urinary potassium); format: in vivo, rat; conditions: intravenous bolus
Protocol: In Vivo Studies in Anesthetized rats: Male, Harlan Sprague Dawley rats were housed at 23±1° C. in a 12:12 hour light:dark cycle (experiments being performed during the light cycle) and were fed and watered ad libitum (Diet LM-485, Teklad, Madison, Wis.). Animals weighing 325-375 gms were fasted for ˜20 hours prior to experimentation.
Surgical preparation: The preparation used here was as described in Young et al., (Drug Dev Res. 37:231-248, 1996), but modified by the addition of unilateral ureteral cannulation. Anesthesia was induced with 5% halothane, maintained with 2% halothane during surgery and with 0.7 to 1% thereafter. […] Colonic temperature was measured and controlled using a thermistor probe/controller (Model 73A, YSI, Yellow Springs, Ohio) and a heated operating table. Signals for mean arterial pressure were periodically sampled at 1 Hz with 12 bit precision (DataTranslation DT2801A) and recorded (Labtech Notebook).
Observations are expressed as the percent of baseline, defined as the mean of measurements made in the 30 min prior to starting peptide or vehicle infusion. Data are expressed as mean±SEM. n=5-6.
Measurements: Samples of arterial blood (160 μl) were collected periodically and samples of urine were collected every 15 min. […] Unilateral urine flow was measured by weighing the 15-minute output of the cannulated ureter. […]

[2] = tested on: Harlan Sprague Dawley rats; test: Arterial blood pressure and dP/dt in conscious rats by telemetry; format: in vivo, rat; conditions: single intraperitoneal injection
Text: Insertion of Transducers: Male, Harlan Sprague Dawley rats were anesthetized with halothane and the abdominal aorta exposed after laparotomy. According to procedures detailed in the “Pressure Telemetry” manual from Data Sciences Inc., pressure transducer/transmitters were secured in place on the abdominal wall with the catheter tip in the abdominal aorta ˜2 mm above bifurcation. Following closure, the animals then recovered to allow at least 7 days of stable recordings. Baseline data were collected during the 7+days after surgery.
Measurement of blood pressure and dP/dt: After obtaining a stable baseline, rats received an intraperitoneal (ip) injection of GLP-1, exendin or vehicle alone (NaCl). The transmitted signals were recorded via telemetry and stored on a personal computer. Rate of pressure change, dP/dt, was calculated by software provided by Data Sciences.
GLP-1: Animals received a single intraperitoneal (ip) injection of saline or GLP-1 (100 μl), n=7-8.

[3] = cited from earlier work
[4] = administered through the jugular vein; cited from earlier work

## His Ala Glu Gly Thr Phe Thr Ser Asp Val Ser Ser Tyr Leu Glu Gly Gln Ala Ala Lys Glu Phe Ile Ala Trp Leu Val Lys Gly Arg-NH2 (HAEGTFTSDVSSYLEGQAAKEFIAWLVKGR-NH2; listed as Homo sapiens) [GLP-1]
[1]
  sodium excretion: increased
[2]
  cardiac contractility (dP/dt): increase
  mean arterial pressure: increase
[3]; intracerebroventricular administration
  diuretic effect: diuretic, antidypsogenic effect
[3]; peripheral, intraperitoneal injection
  diuretic effect: did not have this effect
[4]
  systolic and diastolic blood pressure and heart rate: increase
